# Data reported in patent publication US10800806B2, “Sterol derivatives and use thereof for treating diseases involving transformed astrocyte cells or for treating malignant haemopathies” (BETA INNOV, priority 2012, dated 2020).
# Entries after “also recorded” stand apart in the source; their conditions may differ.
# Experiments:
# [1] = tested on: white blood cells from a patient suffering from CMML; test: Activity in vitro on Chronic Myelomonocytic Leukaemia (CMML) cells; assay type: cell-based, human; settings: 10 μM once, improved liposomal form, 72 h of treatment
# Experimental: The cells purified from blood samples of patients suffering from Chronic Myelomonocytic Leukaemia (CMML) were obtained by the Clinical Haematology Centre and the Biotherapy Centre of the Saint Eloi Hospital (CHU de Montpellier). Culture was carried out by the technique of seeding on a feed layer. […] The CMML cells were cultured on cell lines originating from human embryo spinal cord (17).
# The white blood cells are isolated from a blood sample collected from a patient suffering from CMML. The cells are treated once with 10 μM of molecule 2.b in improved liposomal form 24 hours after culturing by seeding on a feed layer (17).
# The controls are cells treated with empty liposomes: the upper left hand photograph marked with the letter A was taken after 48 h of treatment and the lower left hand photograph with the letter B after 72 h of treatment.
# For the cells treated with 2.b, the upper right hand photograph marked with the letter C was taken after 48 h of treatment and the lower right hand photograph with the letter D after 72 h of treatment.
# [2] = tested on: Neuroblastoma (line SH-SY5Y, ATCC-CRL-2266); test: Activity in vitro on human neuroblastomas; assay type: cell-based; settings: 22 μM once, concentrated liposomal form, 7 days of treatment
# Experimental: They were obtained from the ATCC collection (Ref. ATCC-CRL-2266). The culture conditions are based on the recommendations in the ATCC information leaflet. • Chronic Myelomonocytic Leukaemia (CMML)
# The neuroblastomas were treated with empty liposomes (controls) or with liposomes containing molecule 1.b or 2.b, 24 h after starting the culture. The cells are treated once with 22 μM of molecule 1.b or 22 μM of molecule 2.b. The liposomal form is concentrated.
# For the control cells, the upper left hand photograph marked with the letter A was taken after 7 days of treatment; the lower left hand photograph marked with the letter B was taken after 28 days of treatment.
# For the cells treated with the concentrated liposomal molecule 1.b, the photograph marked with the letter C (in the middle, at the top) was taken after 7 days of treatment and the photograph marked with the letter D (in the middle, at the bottom) after 28 days of treatment. For the cells treated with the concentrated liposomal molecule 2.b, the upper right hand photograph marked with the letter E was taken after 7 days of treatment.
# [3] = tested on: partially purified LDH from human GBM lines (U87-MG); test: Inhibition of LDH activity, in gel assay after IEF; assay type: biochemical; settings: ethanolic form, 36 mM
# Experimental: Next, the LDH activities and their inhibition were detected by the “in gel assay” technique (25). The source of activity used was LDH LL and LDH, partially purified, from human GBM lines U87-MG (LDH GBM). “In gel assay” detection was carried out after isoelectric focusing (IEF) on electrophoresis gels of the LDH LL and LDH GBM samples.
# The cells collected in phosphate buffer (50 mM, Ph 7.2.Pi) undergo several freeze (−20° C.)/thaw cycles and the cellular material is homogenized. After centrifugation at 10,000 g for 45 min at 4° C., the supernatant is collected and aliquots containing 10% glycerol (v:v) are frozen at −80° C. At the desired time, the aliquots, after thawing, are chromatographed on a filtration column (Biogel P-60, BioRad) prepared in Pi. The volume of gel is 9 ml and the inside diameter of the column is 0.4 cm. Elution is carried out at atmospheric pressure. […]
# The LDH activity is detected by the lactate/NAD/MTT/phenazine methosulphate system (formation of a precipitate of the formazan type in the IEF gel); this system is described in reference (25). […]
# The activity of LDH is detected by the “in gel assay” technique on IEF electrophoresis gels, which were described in the section “A/ PROTOCOLS 6)” (25); the precision of this technique is 0.2 unit of pH. The activity of LDH is detected by a dark blue precipitate, of the formazan type, the site where LDH activity is located.
# [4] = tested on: colon cancer cells (ECACC-HT29/219); test: Activity in vitro on colon cancer cells; assay type: cell-based, human; settings: 15 μM, improved liposomal form
# Text: They were obtained from the ECACC collection (Ref. ECACC-85061109). The culture conditions are based on the recommendations in the Sigma-Aldrich information leaflet. • Neuroblastoma (line SH-SY5Y)
# The cancer cells used are from liver (ref. ATCC-HB-8065), prostate (ref. ATCC-HTB-81), breast (ref. ATCC-HTB-19) cancer cells, and from colon cancer cells (ECACC-HT29/219) of human origin, mentioned above.
# [5] = tested on: CD133+ stem cells (U87-MG cultures); test: Immunolabelling of the CD133+ stem cells with the A/B peroxidase system; assay type: cell-based, human; settings: for CD133+ cells, percentage relative to the controls: 30 μM in ethanolic form
# Experimental: The anti-CD133 (poly, Abnova), anti-GFAP (poly, Sigma), anti-NFL (mono, Santa Cruz) and anti-fibroblast (ERTR7, Santa Cruz) primary antibodies are diluted to 1/100 in the case of the first three antibodies and to 1/50 in the case of the last.
# The secondary antibodies corresponding to recognition of the primary antibodies are anti-rabbit antibodies coupled to peroxidase (goat, Sigma), anti-mouse coupled to Dylight 488 (sheep, Sigma), anti-mouse coupled to Dylight 488 (sheep, Sigma) and anti-rat coupled to FITC (rabbit, Sigma). The dilutions are 1/4000, 1/1000, 1/4000 and 1/400 respectively.
# The cells are permeabilized for 5 min with 0.1% Triton X-100 (Sigma) in PBS (Fisher Scientific). The nonspecific sites are blocked with 2% BSA (Sigma) in PBS. Incubations are carried out for 1 h at ambient temperature, 48 h at 4° C., 24 h at 4° C. and 1 h at ambient temperature for the anti-CD133, anti-GFAP, anti-NFL and anti-Fibroblast antibodies respectively. Incubation with the secondary antibodies is carried out for 1 h at ambient temperature. The CD133 positive cells are detected by the DAB/H2O2 system (Sigma), and observed with an optical microscope.
# The immunolabelling is carried out as described above (section II, A).
smiles,measurement,setting,value
"CC(=O)OC1C=C2CC(OC(=O)C3COC(C)(C)O3)CCC2(C)C2CCC3(C)C(C(C)CCCC(C)C)CCC3C12 (centres unmarked) [Molecule 2.b, 7-acetoxy-10,13-dimethyl-17-(6-methylheptan-2-yl)-2,3,4,7,8,9,10,11,12,13,14,15,16,17-tetradecahydro-1H-cyclopenta[a]phenanthren-3-yl 2,2-dimethyl-1,3-dioxolane-4-carboxylate]",effect on cell multiplication relative to the control,[1],Cell multiplication is slowed considerably
same,toxicity to neuroblastoma cells compared to the control cells,[2],no viable cell is observed
same,inhibition of the enzymatic activity of LDH GBM,[3],partially
same,toxicity to colon cancer cells,[4],not toxic
same,"CD133+ cells, percentage relative to the controls",[5]; 4 days of treatment,100%
same,"CD133+ cells, percentage relative to the controls",[5]; 22 days of treatment,0%
same,destruction of the CD133+ stem cells,"[5]; ethanolic form, 22 days of treatment",completely destroyed; also recorded: completely destroys the stem cells
same,appearance of CD133+ stem cells after replacing the culture medium with fresh drug-free medium,[5]; medium replaced at 22 days,does not lead to the appearance of CD133+ stem cells
